In PubChem BioAssay AID623878 (Vanderbilt Specialized Chemistry Center, 2012) one finds fold shift data, which are given here for one compound.

The target of this test is Metabotropic glutamate receptor 2 (Rattus norvegicus) (UniProt P31421). Briefly: glutamate response shift at rat mGlu2 – cell-based, thallium flux, glutamate fold shift, selectivity assay for mGlu4 PAM project, SAR follow-up (AID 623878). Conditions: rat mGlu2 cells, at 10 µM.

The structures appear in SMILES notation. Calls of active or inactive are those of the source.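 How the source made its calls: active means glutamate fold shift at least 2 as enhancer, or at most 0.5 as blocker, actives on both sides; inactive means the rest.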

Metabotropic glutamate receptor 2 (Rattus norvegicus), sequence (P31421 whole entry, looked up): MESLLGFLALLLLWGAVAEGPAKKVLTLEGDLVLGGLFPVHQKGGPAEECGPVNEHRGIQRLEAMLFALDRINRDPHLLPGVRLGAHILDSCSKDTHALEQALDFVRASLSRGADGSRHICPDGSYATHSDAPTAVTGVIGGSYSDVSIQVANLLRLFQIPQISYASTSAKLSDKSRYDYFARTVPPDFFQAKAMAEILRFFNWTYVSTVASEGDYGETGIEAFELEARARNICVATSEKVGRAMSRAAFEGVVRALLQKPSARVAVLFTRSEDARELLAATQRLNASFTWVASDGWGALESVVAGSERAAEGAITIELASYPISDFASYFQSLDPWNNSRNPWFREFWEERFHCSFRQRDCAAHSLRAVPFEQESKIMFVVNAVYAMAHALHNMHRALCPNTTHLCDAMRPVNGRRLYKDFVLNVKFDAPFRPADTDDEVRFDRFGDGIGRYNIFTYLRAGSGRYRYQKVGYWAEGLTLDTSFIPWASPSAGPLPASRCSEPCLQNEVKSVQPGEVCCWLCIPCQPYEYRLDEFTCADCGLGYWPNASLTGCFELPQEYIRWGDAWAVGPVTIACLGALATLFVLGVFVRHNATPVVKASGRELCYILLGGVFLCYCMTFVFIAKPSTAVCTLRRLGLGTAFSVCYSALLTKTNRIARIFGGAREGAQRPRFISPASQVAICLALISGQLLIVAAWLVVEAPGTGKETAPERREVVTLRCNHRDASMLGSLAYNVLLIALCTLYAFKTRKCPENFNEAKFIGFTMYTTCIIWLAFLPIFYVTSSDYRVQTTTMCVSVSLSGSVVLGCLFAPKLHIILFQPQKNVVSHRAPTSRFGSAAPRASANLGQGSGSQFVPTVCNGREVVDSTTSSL

With `O=C(Nc1cccc(Cl)c1)c1ccccn1`, the fold shift was 0.98 (inactive).
